Structures can show the parent of a compound that is named as a salt.
Legend:
[1] = cited from earlier work
[2] = system: skin-mimicking three-dimensional epidermal models (EPI-MODEL12, J-TEC); assay: Evaluation of electro-osmosis (electro-permeation): drug permeation through three-dimensional epidermal model into reservoir solution with vs without electric current (permeation evaluation system 1), HPLC; settings: ketoprofen solution pH 6.6, 20 μA for 2 hours
Method: A specific method for evaluating drug permeation into the skin is described. A 7 mm×7 mm carbon cloth is coated with 80 µl of a solution of multi-walled carbon nanotubes in two separate instances and dried at 60° C. The carbon cloth is washed with pure water and further dried to prepare an electrode to be provided directly on cells. Skin-mimicking three-dimensional epidermal models (EPI-MODEL12, J-TEC) are used as the cells. Phosphate-buffered saline (PBS) is used as a reservoir solution. An Ag/AgCl electrode is introduced into the reservoir solution. Subsequently, each electrode is electrically connected to a […] source meter. A drug is dissolved in an appropriate solution. The drug solution of 400 µl is added dropwise to the cells, and the carbon cloth electrode is soaked therein. First, an electrode on the cells is connected to the positive electrode, and the Ag/AgCl electrode on the reservoir solution side is connected to the negative electrode. […] In the same manner, comparative experiment of adding 400 µl of the same drug solution dropwise to the cells is performed without the application of the electric current. […] Analysis can be performed by HPLC analysis, mass analysis, or other means. The amount of permeation with the application of the electric current is compared with that without the application of the electric current. […]

| SMILES | pKa [1] | amount of permeation compared with a system without applying an electric current (100%) ([2]; electrode on the cells connected to positive electrode) [%] | amount of permeation relative to that measured in a system without applying an electric current (100%) ([2]; reversed direction, electrode on the cells connected to negative electrode) [%] |
| --- | --- | --- | --- |
| CCCCNc1ccc(C(=O)OCCN(C)C)cc1 [tetracaine hydrochloride] | 8.4 | – | – |
| CC(C(=O)O)c1cccc(C(=O)c2ccccc2)c1 (stereo not drawn) [ketoprofen] | – | 306 | 231 |

Source: patent US20260263384A1, “TRANSDERMAL ELLECTRICALLY CONDUCTIVE PATCH” (KIKKOMAN CORPORATION, priority 2023, published 2026)
